Test system: silicon accumulator plants, silicon diffusion plants and silicon rejecting plants
Settings: foliar spray every week, solution containing 0002 mg/ml Si

Substance: silicic acid
- effect on growth, production, resistance to infection, color of fruits, shelf life: clear effect
